Reference: patent publication US20260071190A1, “SARS CORONAVIRUS 2 R[…] […] GENES, DERIVED FROM GH CLADE SARS CORONAVIRUS 2 OF KOREAN ISOLATE, AND THE PRODUCTION METHOD THEREFOR” (RpexBio, Inc., priority 2022, published 2026)

Test system: rSARS-COV-2/YS006_Nluc
Assay type: cell-based, SARS coronavirus 2
Details: compared to healthy human-derived IgG control, FIG. 4D

## etesevimab: Eli Lilly's recombinant monoclonal antibody for the treatment of SARS coronavirus 2
  inhibition of viral entry into cells / reporter expression: inhibit viral entry into cells and reduce reporter expression as its concentration increased
